These are literature values, as cited in article PMC9503778, “Targeted Isolation of Antibiotic Brominated Alkaloids from the Marine Sponge Pseudoceratina durissima Using Virtual Screening and Molecular Networking” (Marine Drugs, 2022).

For data set [1], the system named is zebrafish larvae at 5 dpf. The arrangement: method as in PMID 35200664. The settings on record: cited from earlier work.
Data set [2] relates to reef fish (Acanthus triostegus). On the set-up: method as in PMID 29702602. The settings on record: dosed feeding experiments; cited from earlier work.
The subject of data set [3] is fresh water fish (Poecilia reticulata). On the set-up: method as in PMID 29702602. The settings on record: dosed feeding experiments; cited from earlier work.
In a further data set the test system is fish. The arrangement: method as in PMID 29702602. The settings on record: 100 µg/mL; cited from earlier work.

Molecules are shown by their SMILES.

For the compound `COC1=C(Br)[C@H](O)[C@@]2(C=C1Br)CC(C(=O)NCCCc1cnc(N)[nH]1)=NO2` [aerophobin-2], in data set [1], the “concentration giving significant larval mortality” value was greater than 1000 nM.

In the case of `COC1=C(Br)[C@@H](O)[C@]2(C=C1Br)CC(C(=O)NCCc1cnc[nH]1)=NO2` [aerophobin-1], the “concentration giving significant larval mortality” value in data set [1] is greater than 1000 nM. Consider `CN(C)CCCOc1c(Br)cc(/C=C/C(=O)N(C)CCCOc2c(Br)cc(CCN(C)C)cc2Br)cc1Br` [psammaplysene D], for which the “feeding behavior of reef fish (Acanthus triostegus)” value in data set [2] is “significant curtailing in feeding behavior”. Besides, the “feeding behavior of fresh water fish (Poecilia reticulata)” value in data set [3] was “significant curtailing in feeding behavior”. For the same compound, the “fish behavior during acute exposure” value in the data set with fish is “the fish became totally confused and experienced uncontrolled mobility”.
